Experimental data published in ChEMBL document CHEMBL1201862, “PubChem BioAssay data set” (2004).
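Values below derive from 48-hour exposures of cells grown in 96-well plates, with endpoints linearly interpolated between the two concentrations bracketing the appropriate inhibition level. At the GI50, growth is halved.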 Active and inactive are the calls of the source. Rule as the data show it: active = GI50 up to about 1.1 µM and inactive = higher.

Legend:
Test in all cases: inhibition of tumour cell growth, NCI panel, 48 h
HOP-92 = tested on: HOP-92
Hs-578T = tested on: Hs-578T
Malme-3M = tested on: Malme-3M
CCRF-CEM = tested on: CCRF-CEM
A549 = tested on: A549
UO-31 = tested on: UO-31
NCI-H226 = tested on: NCI-H226
SR = tested on: SR
OVCAR-8 = tested on: OVCAR-8
PC-3 = tested on: PC-3
NCI-H23 = tested on: NCI-H23
MOLT-4 = tested on: MOLT-4
HCC 2998 = tested on: HCC 2998
MDA-N = tested on: MDA-N
SK-MEL-5 = tested on: SK-MEL-5
M14 = tested on: M14
SK-MEL-28 = tested on: SK-MEL-28
NCI/ADR-RES = tested on: NCI/ADR-RES
SF-268 = tested on: SF-268
DU-145 = tested on: DU-145

Structure (SMILES)	GI50 (HOP-92)	GI50 (Hs-578T)	GI50 (Malme-3M)	GI50 (CCRF-CEM)	GI50 (A549)	GI50 (UO-31)	GI50 (NCI-H226)	GI50 (SR)	GI50 (OVCAR-8)	GI50 (PC-3)	GI50 (NCI-H23)	GI50 (MOLT-4)	GI50 (HCC 2998)	GI50 (MDA-N)	GI50 (SK-MEL-5)	GI50 (M14)	GI50 (SK-MEL-28)	GI50 (NCI/ADR-RES)	GI50 (SF-268)	GI50 (DU-145)
COC(=O)/C=C(\C)CC(O)/C=C(\C)CCC=C(C)C (centres undefined)	71.6 µM (inactive)	80 µM (inactive)	39.6 µM (inactive)	30.8 µM (inactive)	34.3 µM (inactive)	33.5 µM (inactive)	45 µM (inactive)	23 µM (inactive)	22.3 µM (inactive)	29.8 µM (inactive)	26.9 µM (inactive)	18.7 µM (inactive)	27.9 µM (inactive)	35.5 µM (inactive)	19.5 µM (inactive)	38.5 µM (inactive)	69 µM (inactive)	16.2 µM (inactive)		
Oc1ccc2ccccc2c1CCc1c(O)ccc2ccccc12	11 µM (inactive)	16.2 µM (inactive)	13.4 µM (inactive)	11.9 µM (inactive)	11.7 µM (inactive)		13.7 µM (inactive)	12 µM (inactive)	14.5 µM (inactive)	13.9 µM (inactive)	11.8 µM (inactive)		3.81 µM (inactive)	13.5 µM (inactive)	12.6 µM (inactive)	15.5 µM (inactive)	10.6 µM (inactive)	13.6 µM (inactive)	11 µM (inactive)	
COC(=O)C1CCCN1C(=O)C(Cc1cn(S(=O)(=O)c2ccc(C)cc2)cn1)NC(=O)OC(C)(C)C (centres undefined)	> 100 µM (inactive)	> 100 µM (inactive)	> 100 µM (inactive)	> 100 µM (inactive)	> 100 µM (inactive)	> 100 µM (inactive)	> 100 µM (inactive)	> 100 µM (inactive)	> 100 µM (inactive)	> 100 µM (inactive)	> 100 µM (inactive)	> 100 µM (inactive)	> 100 µM (inactive)	> 100 µM (inactive)	> 100 µM (inactive)	> 100 µM (inactive)	> 100 µM (inactive)			
CC1(C)[C@@H]2CC[C@@]1(C)[C@@H]1O[C@@H](O[C@@H](CN)c3cc(Cl)c(OCc4ccccc4)c(OCc4ccccc4)c3)C[C@H]21	0.171 µM (active)	0.187 µM (active)	0.183 µM (active)	0.167 µM (active)	0.163 µM (active)	0.173 µM (active)	0.184 µM (active)	0.0627 µM (active)	0.189 µM (active)	0.158 µM (active)		0.16 µM (active)		0.152 µM (active)	0.178 µM (active)	0.164 µM (active)	0.19 µM (active)		0.192 µM (active)	0.191 µM (active)
Nc1nc(-c2ccccc2)c(Cl)c(-c2cc(Cl)ccc2O)n1	39.5 µM (inactive)		> 77.1 µM (inactive)	> 96.2 µM (inactive)	19.5 µM (inactive)	16 µM (inactive)	24.7 µM (inactive)	> 100 µM (inactive)	14 µM (inactive)	36.1 µM (inactive)	15.8 µM (inactive)	> 100 µM (inactive)	> 81.1 µM (inactive)	> 100 µM (inactive)	14.2 µM (inactive)	> 100 µM (inactive)	91.2 µM (inactive)		18.3 µM (inactive)	11.1 µM (inactive)
N=c1sc(N2CCOCC2)nn1CC(=O)c1ccccc1		> 100 µM (inactive)	> 100 µM (inactive)	> 100 µM (inactive)	> 100 µM (inactive)	> 100 µM (inactive)	> 100 µM (inactive)		> 100 µM (inactive)	96.8 µM (inactive)	> 100 µM (inactive)	> 100 µM (inactive)	> 100 µM (inactive)	> 100 µM (inactive)	> 100 µM (inactive)	> 100 µM (inactive)	> 100 µM (inactive)	> 100 µM (inactive)	> 100 µM (inactive)	> 100 µM (inactive)
CC[C@]1(O)C[C@H]2CN(CCc3c([nH]c4ccccc34)[C@@](C(=O)OC)(c3cc4c(cc3OC)N(C)[C@H]3[C@@](O)(C(=O)OC)[C@H](OC(C)=O)[C@]5(CC)C=CCN6CC[C@]43[C@@H]65)C2)C1	0.00227 µM (active)		0.000557 µM (active)	0.000641 µM (active)	0.00157 µM (active)	0.143 µM (active)	0.00115 µM (active)	0.000425 µM (active)	0.00129 µM (active)	0.000412 µM (active)	0.000678 µM (active)	0.000736 µM (active)	0.000959 µM (active)	0.000476 µM (active)	0.000354 µM (active)	0.000762 µM (active)	0.00165 µM (active)	0.115 µM (active)	0.000986 µM (active)	0.000395 µM (active)
